Test results as given in paper PMC11714165, “Bone‐Targeted Fluoropeptide Nanoparticle Inhibits NF‐κB Signaling to Treat Osteosarcoma and Tumor‐Induced Bone Destruction” (Advanced Science, 2024).
Residues, ends and D or L forms follow the SMILES beside them. *: point of attachment. X1 = O=C(OCCC(F)(F)C(F)(F)C(F)(F)C(F)(F)C(F)(F)C(F)(F)F)c1ccc(C=NN*)cc1; FITC = O=C1OC2(c3ccc(O)cc3Oc3cc(O)ccc32)c2ccc(NC(=S)*)cc21; NHNH2 = NN*

Key:
143B cells [1] = assay: LDH release assay; format: cell-based, human; details: varying doses, 24 h, n = 3
Method: For the LDH assay, different concentrations of peptides were added to 143B cells as described above. The LDH released from the cells was measured by the manufacturer's protocol (Beyotime) after 24 h of incubation. Briefly, a new plate was used to transfer the solution of each well and treat it with lysis buffer at 37 °C for another 1 h. Each well was then incubated with the LDH working solution for 30 min. LDH activity was measured at 490 nm. Negative control cells were non‐treated, while positive control cells were treated with lysis buffer for 1 h directly. All samples were tested in triplicate.

mouse red blood cell = assay: Hemolysis of red blood cell suspension; format: cell-based; details: 2% mouse red blood cell suspension, different concentrations, 37 °C, 2 h, 1% Triton X‐100 positive control, n = 3
Method: Figure 3 Bioactivity of fluorous NBD nanoparticles. A) Schematic illustration of the NBD peptide inhibiting the NF‐κB pathway. B) WB analysis of p65, IκB, and phosphorylated p65 and IκB, respectively in BMM cells treated with RANKL for 2 h and then further incubated with different peptides (25 µM) for 24 h. C) Representative images of TRAP staining in BMM cells treated with PBS, NBD, NBD‐T, and NBD‐F respectively for osteoclast differentiation. The concentration of peptides was 25 µM. D) Quantification of the number of TRAP‐positive multinucleated osteoclasts (≥ 3 nuclei) based on the images in C). n = 5. Cell viability E) and LDH release F) of 143B cells exposed for 24 h to varying doses of NBD, NBD‐T, and NBD‐F, respectively. n = 3. G) Apoptosis analysis of 143B cells stained with FITC‐annexin V and propidium iodide (PI) for 24 h following treatment with NBD, NBD‐T, and NBD‐F, respectively. H) Images of 2% mouse red blood cell suspension incubated with different concentrations of NBD‐F or NBD‐T at 37 °C for 2 h. Triton X‐100 at 1% (Tx‐100) was used as a positive control. PBS was used as a negative control. […] Relative hemolysis was tested as [(As‐An)/(Ap‐An)] × 100%, where As, Ap, and An are the UV absorbances of the sample, positive control, and negative control, respectively (n = 3). *p < 0.05, **p < 0.01, ***p < 0.001, and ****p < 0.0001. […]

143B cells [2] = assay: Intracellular peptide delivery, confocal microscopy and flow cytometry; format: cell-based, human
Method: 10 µM of ^FINBD, ^FINBD‐F, or ^FINBD‐T was added to confocal dishes (diameter: 35 mm) when the 143B cells reached 90% confluence. After a 6 h incubation, the cells were rinsed with trypan blue and PBS, followed by imaging using a LSCM.
For flow cytometry analysis, the peptide ^FINBD, ^FINBD‐F, or ^FINBD‐T was added to 143B cells, following the aforementioned protocols. Subsequently, cells were digested using 0.25% trypsin, resuspended in PBS, and subjected to quantitative analysis of delivery efficiency using flow cytometry (CytoFLEX, BECKMAN, USA).
A control group consisted of ^FINBD‐F treated 143B cells in the absence of inhibitors (37 °C). Finally, LSCM was employed to observe internalized ^FINBD‐F in the treated cells.

| Cellular uptake and endosomal escape (143B cells [2]; confocal, fluorescence dispersed throughout the cells after an hour of incubation) | Molecule | LDH release (143B cells [1]) | Relative hemolysis (mouse red blood cell) | Efficiency of intracellular delivery (fluorescence intensity) (143B cells [2]; 10 µM NBD, 6 h, confocal microscopy and flow cytometry, n = 3, compared with ^FINBD and ^FINBD‐T) | Internalization mechanism (143B cells [2]; 1 h pretreatment with EIPA 100 µM, MβCD 10 mM, GEN 700 µM, CPZ 20 µM or 4 °C, then 6 h peptide) |
| --- | --- | --- | --- | --- | --- |
| – | CC(C)C[C@H](NC(=O)[C@H](C)NC(=O)[C@@H](N)[C@@H](C)O)C(=O)N[C@@H](CC(=O)O)C(=O)N[C@@H](Cc1c[nH]c2ccccc12)C(=O)N[C@@H](CO)C(=O)N[C@@H](Cc1c[nH]c2ccccc12)C(=O)N[C@@H](CC(C)C)C(=O)N[C@@H](CCC(N)=O)C(=O)N[C@H](C(=O)N[C@@H](CCC(=O)O)C(=O)NN=Cc1ccc(C(=O)OCCC(F)(F)C(F)(F)C(F)(F)C(F)(F)C(F)(F)C(F)(F)F)cc1)[C@@H](C)O [NBD-F] (H-TALDWSWLQTE-X1) | concentration‐dependent | relatively low hemolytic rate | – | – |
| rapid and efficient | {FITC}-TALDWSWLQTE-NHNH2 [^FINBD-F, FITC‐labeled NBD peptide after fluorous tag modification] | – | – | noticeably improved the efficiency of intracellular delivery | mediated through multiple endocytosis pathways |
